Measurements taken from patent US7943580B2, “Polypeptide and the use thereof” (National Cerebral and Cardiovascular Center, priority 2004, dated 2011).

What was measured:
conscious rats [1] = experiment: Blood hormone levels after central administration of NUNP and NSNP; type: in vivo, rat; details: 20 minutes after central administration of 1 nmol
conscious rats [2] = experiment: as above; type: in vivo, rat; details: for prolactin level in blood: 20 minutes after central administration of 1 nmol
Method: (§1) A catheter was placed in the lateral ventricle of Wistar rats (male, 8 weeks old) and housed under controlled conditions with free access to their diet, while they were accustomed to experimental procedures (22°, light-on from 7:00 to 19:00). […] (1) For feed intake during the dark phase, NMS was administered at 18:00 and their feed intake was measured during 19:00 to 7:00. In addition, (2) NMS was administered to 14 hour-fasted rats at 9:00 and immediately thereafter the feed intake was measured for 2 hours.
(§2) Changes in prolactin blood level by central administration were monitored. Central administration to conscious rats was performed in the same way as in EXAMPLE 9. The animal received rat NUNP-36 or rat NSNP-37 prepared by the procedure of EXAMPLE 14 and dissolved in physiological saline and then decapitated, followed by blood collection in 20 minutes or blood collection via the tail vein at each time after peptide administration. Prolactin was measured using RIA kit (Amersham). A direct effect on pituitary anterior cells was also examined. The pituitary anterior cells were prepared from Wistar rats (5 week old, male), incubated in a 96-well plate for 2 days and used for the experiment. After rat NUNP-36 or rat NSNP-37 was added, the culture supernatant was recovered 30 minutes after and the prolactin level was measured.

pituitary anterior cells = experiment: Prolactin release from primary culture of anterior pituitary cells; type: cell-based; details: primary culture of rat anterior pituitary cells, supernatant recovered 30 minutes after addition
Method: as §2

c-Fos protein = experiment: Immunostaining for c-Fos protein in the suprachiasmatic nucleus after intracerebroventricular administration; type: in vivo, rat; details: intracerebroventricular 1 nmol at CT6, 90 minutes after administration, compared to physiological saline
Method: Male Wistar rats (300-350 g) were used for the experiment of circadian rhythm phase shift. Intracerebroventricular administration was performed in accordance with the method of Ida et al. (Ida, T., et al., (1999) Brain Res., 821, 526, 1999). The spontaneous locomotor activity was measured by the method of Nakahara et al. (Nakahara, K., et al., Biochem. Biophys. Res. Commun., 318, 156, 2004). The phase shift of spontaneous locomotor activity rhythm was calculated based on the distance between the lines drawn by plotting a delay in time of daily onset of spontaneous locomotor activity for at least 10 days before and after the intracerebroventricular administration of NMS or physiological saline. […] Phase-response data were evaluated using one-way ANOVA followed by Scheffe's multiple comparisons test. […] The spontaneous locomotor activity was recorded for 2 weeks before and after the administration, respectively, according to the method of Nakahara et al. (Nakahara, K., et al., Biochem. Biophys. Res. Commun., 318, 156, 2004). At the conclusion of the experiment, the exact location of the cannula was determined histologically as follows. […] The sections were analyzed by comparing to the corresponding rat brain atlas of Paxinos and Watson (Paxinos, G. and Watson, C., The rat brain in stereotaxic coordinates, Academic Press, New York, USA, 1998). […]

Wistar rats [3] = experiment: Effect on feed intake by central administration; type: in vivo, rat
Method: as §1

Sprague-Dawley rats = experiment: Hypertensive activity by transvenous administration to rat; details: dose of 3 nmol/kg, pentobarbital-anesthetized rats
chick rectum = experiment: Contractile activity on the chick rectum; details: dose of 10 pmol, 37° C., Krebs-Henseleit solution
Method: Contraction of the rectum was then measured.

conscious rats [4] = experiment: Prolactin release suppressing activity by central administration of NMS; type: in vivo, rat; details: 20 minutes after central administration of 1 nmol
Method: as §1
Changes in prolactin blood level by central administration of NMS were monitored. Central administration to conscious rats was performed as in EXAMPLE 9. Blood was collected by decapitation 20 minutes after peptide administration. Prolactin was assayed using RIA kit (Amersham).

Wistar rats [5] = experiment: Phase shift of circadian rhythms in spontaneous locomotor activity; type: in vivo, rat
Method: Male Wistar rats (300-350 g) were used for the experiment of circadian rhythm phase shift. Intracerebroventricular administration was performed in accordance with the method of Ida et al. (Ida, T., et al., (1999) Brain Res., 821, 526, 1999). The spontaneous locomotor activity was measured by the method of Nakahara et al. (Nakahara, K., et al., Biochem. Biophys. Res. Commun., 318, 156, 2004). The phase shift of spontaneous locomotor activity rhythm was calculated based on the distance between the lines drawn by plotting a delay in time of daily onset of spontaneous locomotor activity for at least 10 days before and after the intracerebroventricular administration of NMS or physiological saline. The onset time of spontaneous locomotor activity was designated as CT12 (circadian time 12). Phase-response data were evaluated using one-way ANOVA followed by Scheffe's multiple comparisons test. […] At 90 minutes after the administration, rats were perfused with 2% paraformaldehyde. Immunostaining for c-Fos protein was performed according to the method of Date et al. (Date, Y, et al., Proc. Natl. Acad. Sci. USA, 96, 748, 1999). The intra-suprachiasmatic nucleus perfusion was performed by an improvement of the Piggins et al. method (Piggins, H. D., et al., J. Neurosci., 15, 5612, 1995). Rats were allowed to free run under constant dark conditions for 2 weeks. Each rat was then implanted with a 26-gauge stainless steel guide cannula in the stereotaxic coordinates by Paxinos and Watson (Paxinos, G. and Watson, C., The rat brain in stereotaxic coordinates, Academic Press, New York, USA, 1998) to reach the suprachiasmatic nucleus. […] The spontaneous locomotor activity was recorded for 2 weeks before and after the administration, respectively, according to the method of Nakahara et al. (Nakahara, K., et al., Biochem. Biophys. Res. Commun., 318, 156, 2004). At the conclusion of the experiment, the exact location of the cannula was determined histologically as follows. Rats received 1 μl of India ink to mark the administered site and were then decapitated. The brain was immediately frozen and cut on a cryostat into 20 μm coronal sections, followed by staining with Crystal Violet. The sections were analyzed by comparing to the corresponding rat brain atlas of Paxinos and Watson (Paxinos, G. and Watson, C., The rat brain in stereotaxic coordinates, Academic Press, New York, USA, 1998). When data obtained for the location was more than 200 μm away from the external border of the suprachiasmatic nucleus, the data was excluded from further analysis.

Substance: rat NUNP-36: rat neuromedin U N-terminal peptide-36, SEQ ID NO: 40 (FLFHYSKTQKLGNSNVVSSVVHPLLQLVPQLHERRM; listed as Rattus norvegicus)
- follicle-stimulating hormone level in blood (conscious rats [1]): 12.26 ± 0.95 ng/mL
- other blood hormone (growth hormone, luteinizing hormone, corticosterone) levels (conscious rats [1]): any significant change was not noted
- thyroid-stimulating hormone level in blood (conscious rats [1]): 4.92 ± 0.22 ng/mL
- prolactin level in blood (conscious rats [2]): 68.74 ± 10.4 ng/mL
- prolactin level in blood (conscious rats [2]; listed as Rat NUNP-36): 27.34 ± 5.63 ng/mL
- time at which the prolactin level reached the peak (conscious rats [2]; central administration at 1 nmol and 0.2 nmol): 20 min
- prolactin level in blood, dose and time dependency (conscious rats [2]; since 10 minutes after central administration at 1 nmol and 0.2 nmol): significant increase of prolactin level
- prolactin in the culture supernatant (pituitary anterior cells): no change was noted

Substance: LPRLLHTDSRMATIDFPKKDPTTSLGRPFFLFRPRN [rat NMS]
- expression of c-Fos protein in the suprachiasmatic nucleus (c-Fos protein): increased
- 2 hour feed intake of fasted rats (Wistar rats [3]; 0.5 nmol into the lateral ventricle, 14 hour-fasted rats): significantly suppressed the feed intake
- feed intake during the dark phase (Wistar rats [3]; administered into the lateral ventricle at 18:00, feed intake measured 19:00 to 7:00): significantly suppressed the feed intake dose-dependently
- dose at which the feed intake suppressing effect showed the maximum (Wistar rats [3]; dark phase feed intake, lateral ventricle administration): 1 nmol
- blood pressure of rats (Sprague-Dawley rats): significantly increased the blood pressure
- contraction of the chick rectum (chick rectum): significant contractile activity
- blood prolactin level (conscious rats [4]): 3.6 ± 1.2 ng/mL
- phase of spontaneous locomotor activity (Wistar rats [5]; intracerebroventricular 1 nmol at CT3-9, constant dark conditions): advances in the phase
- phase of spontaneous locomotor activity (Wistar rats [5]; intracerebroventricular 1 nmol at CT22-24, constant dark conditions): delays in the phase
- phase of spontaneous locomotor activity (Wistar rats [5]; intracerebroventricular 1 nmol at any other time, constant dark conditions): No phase shift was observed
- length of circadian rhythm (Wistar rats [5]; intracerebroventricular administration, any time): not affected
- phase of circadian rhythms of spontaneous locomotor activity (Wistar rats [5]; microinjected directly into the suprachiasmatic nucleus at CT6): phase advances
- phase of circadian rhythms of spontaneous locomotor activity (Wistar rats [5]; microinjected directly into the suprachiasmatic nucleus at CT23): delays

Substance: rat NSNP-37: rat neuromedin S N-terminal peptide-37, SEQ ID NO: 10 (FLFHYSRAWKSTHPVNSEFAPVHPLMRLAAKLPSRRM; listed as Rattus norvegicus)
- follicle-stimulating hormone level in blood (conscious rats [1]): 10.64 ± 0.72 ng/mL
- other blood hormone (growth hormone, luteinizing hormone, corticosterone) levels (conscious rats [1]): any significant change was not noted
- thyroid-stimulating hormone level in blood (conscious rats [1]): 5.37 ± 0.51 ng/mL
